Reference: patent US11793782B2, “Therapeutic agents for neurodegenerative diseases” (priority 2017, dated 2023)
“And” between values parts separate entries of the source, which are not always exact repeats. Equal values may be shown once.

Test system: NPC patients
Assay: Clinical severity score (CSS) and annual severity increment score (ASIS) in NPC patients
Format: in vivo, human
Parameters: key to CSS overall / CSS eye movement / CSS ambulation / CSS speech / CSS swallow / CSS fine motor skills / CSS cognition / CSS memory / CSS seizures: NPC clinical severity score; higher score = greater severity
Settings: for CSS overall / CSS ambulation / CSS cognition / CSS eye movement / CSS fine motor skills / CSS memory / CSS seizures / CSS speech / CSS swallow / ASIS overall: NPC patients; for ASIS overall: CSS divided by age
Description: Progression of a neurodegenerative disease over time or through treatment can be monitored, for example, using one or more known tests at two or more time points and comparing the results. Disease progression and/or severity can be assessed, for example, using the Scale for the Assessment and Rating of Ataxia (SARA), Spinocerebellar Ataxia Functional Index (SCAFI), the International Cooperative Ataxia Rating Scale (ICARS), the brief ataxia rating scale (BARS), the modified Disability Rating Scale (mDRS), EuroQol 5Q-5D-5L (EQ-5D-5L), the visual analogue scale (VAS), neuropsychological tests, such as Wechsler Adult Intelligence Scale-Revised (WAIS-R), Wechsler Intelligence Scale for Children-IV (WISC-IV), Montreal Cognitive Assessment (MoCA), as well as scales used in movement disorders, such as the Unified Parkinson's Rating Scale (UPRS) or the Unified Multiple System Atrophy Rating Scale (UMSARS), or other suitable tests. For certain LSDs, such as NPC, particular scores have been developed and validated over the last decades, for instance the clinical severity score (CSS) and annual severity increment score (ASIS) (see Yanjanin et al., “Linear Clinical Progression, Independent of Age of Onset, in Niemann-Pick Disease, Type C,” Am J Med Genet Part B 153B:132-140) and the modified 6-Domain NP-C disability Scale (mDRS score). For example, an NPC patient's severity can be quantified by assigning a CSS, which assesses various parameters of the disease (ambulation, seizures, eye movement, etc.) and gives each parameter a score out of 5. A higher score equals a greater severity. The ASIS quantifies the annual rate of change in the CSS, calculated by dividing the CSS by the patient's age. In this regard, certain scores in these tests are characteristic of symptomatic neurodegenerative disease patients and evidence disease progression and/or severity.
An NPC patient's severity may be quantified by assigning a clinical severity score (CSS), which assesses various parameters of the disease and gives each parameter a score out of 5 (higher score=greater severity). See Yanjanin et al., “Linear Clinical Progression, Independent of Age of Onset, in Niemann-Pick Disease, Type C,” Am J Med Genet Part B 153B:132-140. In an untreated patient, one can typically predict how the CSS will change over time in an individual, as disease progression appears to be linear. For example, if Patient A moves from a CSS of 8 to a CSS of 12 between month 0 and month 12, it can be predicted that by month 36, the patient will have a CSS of 20. The annual severity increment score (ASIS) quantities the annual rate of change in the CSS, calculated by dividing the CSS of a patient by the patient's age. […] Each year, the patient would be expected to progress by 4 CSS points, such that at 4 years of age, the patient's CSS would be 16. If therapeutic intervention slowed or arrested disease progression, one would expect the patient to have a smaller ASIS score after such therapy than at baseline.
Ten NPC patients were administered acetyl-leucine at 4.5 g/day over long durations. ACSS was determined at baseline, and at various time points, for eye movement, ambulation, speech, swallow, fine motor skills, cognition, memory, and seizures. An overall CSS was calculated at baseline and at each such time point by adding the individual CSS values for each parameter (eye movement, ambulation, etc.).
The ASIS at baseline and each time point was calculated using each patient's CSS and age at the time of assessment. The overall ASIS for each patient at each time point is shown below in Table 35.

[1] = one line per Patient, 4.5 g/day, Time Point 2, listed as acetyl-leucine
[2] = one line per Patient, 4.5 g/day, Time Point 3, listed as acetyl-leucine
[3] = one line per Patient, 4.5 g/day, Time Point 4, listed as acetyl-leucine

CC(=O)NC(CC(C)C)C(=O)O (racemic) [acetyl-DL-leucine]
CSS overall (one line per Patient I.D 1-10, 4.5 g/day, Time Point 2 (78-400 days, Table 25), listed as acetyl-leucine): 13 and 12 (3×) and 23 and 19 and 22 and 11 (2×) and 33 | CSS ambulation [1]: 2 (5×) and 1 (3×) and 4 and 5 | CSS cognition [1]: 3 (5×) and 4 (3×) and 2 and 5 | CSS eye movement [1]: 2 and 3 (9×) | CSS fine motor skills [1]: 1 (6×) and 4 (2×) and 2 and 5 | CSS memory [1]: 1 (5×) and 3 and 4 (3×) and 0 | CSS seizures [1]: 0 (9×) and 5 | CSS speech [1]: 2 (4×) and 1 (6×) | CSS swallow [1]: 2 (5×) and 3 (3×) and 0 and 4 | CSS overall (one line per Patient, 4.5 g/day, Time Point 3 (165-644 days), listed as acetyl-leucine): 10 (2×) and 12 and 21 (2×) and 19 and 11 (2×) and 33 | CSS ambulation [2]: 1 (5×) and 2 (3×) and 5 | CSS cognition [2]: 3 (5×) and 4 (3×) and 5 | CSS eye movement [2]: 2 (2×) and 3 (7×) | CSS fine motor skills [2]: 1 (5×) and 4 (2×) and 2 and 5 | CSS memory [2]: 0 (2×) and 1 (3×) and 3 (2×) and 4 (2×) | CSS seizures [2]: 0 (8×) and 5 | CSS speech [2]: 1 (6×) and 2 (3×) | CSS swallow [2]: 2 (4×) and 3 (3×) and 0 and 4 | CSS eye movement (one line per Patient, 4.5 g/day, Time Point 4): 3 | CSS overall (one line per Patient, 4.5 g/day, Time Point 4 (297-414 days), listed as acetyl-leucine): 12 and 21 and 33 | CSS ambulation [3]: 1 and 2 and 5 | CSS cognition [3]: 3 and 4 and 5 | CSS fine motor skills [3]: 1 and 4 and 5 | CSS memory [3]: 1 and 3 and 4 | CSS seizures [3]: 0 (2×) and 5 | CSS speech [3]: 1 and 2 (2×) | CSS swallow [3]: 2 and 3 and 4 | ASIS overall (one line per patient (order of Table 26), Time Point 2, listed as acetyl-leucine): 0.4767 and 0.4299 and 0.6073 and 0.5333 and 0.4452 and 0.7124 and 0.406 and 0.3769 and 1.905 and 0.5926 | ASIS overall (one line per patient, Time Point 3, listed as acetyl-leucine): 0.3635 and 0.4232 and 0.5523 and 0.5299 and 0.4029 and 0.6656 and 0.3393 and 1.881 and 0.5325 | ASIS overall (one line per patient, Time Point 4, listed as acetyl-leucine): 0.4162 and 0.5454 and 1.853 | ASIS during treatment relative to ASIS at baseline (ten NPC patients, 4.5 g/day): all ten patients showed a reduction in ASIS | Overall change in CSS over the course of the experiment (ten NPC patients, 4.5 g/day): none of the ten patients showed an overall increase in CSS
